# From ChEMBL document CHEMBL3751761, “Analogues of boswellic acids as inhibitors of pro-inflammatory cytokines TNF-α and IL-6” (Bioorg Med Chem Lett, 2016)
# Tests used:
# [1] = test system: PBMC; test: Anti-inflammatory activity in human PBMC assessed as inhibition of LPS-induced TNFalpha expression at 10 uM after 5 hrs; assay type: functional
# [2] = Cytotoxicity against human FR2 cells assessed as cell viability at 10 uM after 48 hrs by MTT assay; assay type: cell-based; details: read-out: Activity
# [3] = test system: Mus musculus; test: Anti-inflammatory activity in BALB/c mouse assessed as inhibition of LPS-induced TNFalpha expression at 10 mg/kg, po pre-treated for 1 hr followed by LPS administration measured 2.5 hrs after LPS challenge by ELISA; assay type: functional
# [4] = test system: PBMC; test: Anti-inflammatory activity in human PBMC assessed as inhibition of LPS-induced IL-6 expression at 10 uM after 5 hrs; assay type: functional
# [5] = test system: Mus musculus; test: Anti-inflammatory activity in BALB/c mouse assessed as inhibition of LPS-induced IL-6 expression at 10 mg/kg, po pre-treated for 1 hr followed by LPS administration measured 2.5 hrs after LPS challenge by ELISA; assay type: functional
Structure (SMILES),inhibition at 10 µM [1],"viability at 48 h, 10 µM [2]",inhibition in vivo at 10 mg/kg [3],inhibition at 10 µM [4],inhibition in vivo at 10 mg/kg [5]
CC(=O)O[C@@H]1CC[C@@]2(C)[C@@H](CC[C@]3(C)[C@@H]2CC=C2[C@@H]4[C@@H](C)[C@H](C)CC[C@]4(C)CC[C@]23C)[C@@]1(C)C(=O)O,43.8%,–,–,–,–
CC(=O)O[C@@H]1CC[C@@]2(C)[C@@H](CC[C@]3(C)[C@@H]2CC=C2[C@@H]4[C@@H](C)[C@H](C)CC[C@]4(C)CC[C@]23C)[C@@]1(C)N=C=O,40.6%,–,–,–,–
C[C@H]1[C@H](C)CC[C@]2(C)CC[C@]3(C)C(=CC(=O)[C@@H]4[C@@]5(C)CC[C@@H](O)[C@](C)(C(=O)O)[C@@H]5CC[C@]43C)[C@H]12 [11-KETO BOSWELLIC ACID],56.3%,86%,58.7%,59.6%,61.6%
CCC(=O)O[C@@H]1CC[C@@]2(C)[C@@H](CC[C@]3(C)[C@@H]2C(=O)C=C2[C@@H]4[C@@H](C)[C@H](C)CC[C@]4(C)CC[C@]23C)[C@@]1(C)C(=O)O,38.9%,–,–,36.6%,–
CC(=O)O[C@@H]1CC[C@@]2(C)[C@@H](CC[C@]3(C)[C@@H]2C(=O)C=C2[C@@H]4[C@@H](C)[C@H](C)CC[C@]4(C)CC[C@]23C)[C@@]1(C)C(=O)O [AKBA],55%,100%,70.7%,53.9%,54.3%
CCCC(=O)O[C@@H]1CC[C@@]2(C)[C@@H](CC[C@]3(C)[C@@H]2C(=O)C=C2[C@@H]4[C@@H](C)[C@H](C)CC[C@]4(C)CC[C@]23C)[C@@]1(C)C(=O)O,34.1%,–,–,22.5%,–
CCCCCC(=O)O[C@H]1CC[C@@]2(C)[C@@H](CC[C@]3(C)[C@@H]2CC=C2[C@@H]4[C@@H](C)[C@H](C)CC[C@]4(C)CC[C@]23C)[C@@]1(C)C(=O)O,42.5%,97%,59.3%,53.4%,41.6%
CC(=O)O[C@@H]1CC[C@]2(C)[C@H]3C(=O)C=C4[C@@H]5[C@@H](C)[C@H](C)CC[C@]5(C)CC[C@@]4(C)[C@]3(C)CC[C@H]2[C@@]1(C)N,78.9%,97%,53.3%,58.4%,39.1%
CCCC(=O)O[C@@H]1CC[C@@]2(C)[C@@H](CC[C@]3(C)[C@@H]2CC=C2[C@@H]4[C@@H](C)[C@H](C)CC[C@]4(C)CC[C@]23C)[C@@]1(C)C(=O)O,41.4%,–,–,34.8%,–
C[C@H]1[C@H](C)CC[C@]2(C)CC[C@]3(C)C(=CC(=O)[C@@H]4[C@@]5(C)CC[C@H](O)[C@](C)(C(=O)O)[C@@H]5CC[C@]43C)[C@H]12,53.5%,100%,71.3%,49.6%,28.9%
CC(=O)O[C@@H]1CC[C@@]2(C)[C@@H](CC[C@]3(C)[C@@H]2C(=O)C=C2[C@@H]4[C@@H](C)[C@H](C)CC[C@]4(C)CC[C@]23C)[C@@]1(C)N=C=O,40.6%,91%,26.4%,69.8%,40.2%
CC(=O)O[C@H]1CC[C@@]2(C)[C@@H](CC[C@]3(C)[C@@H]2CC=C2[C@@H]4[C@@H](C)[C@H](C)CC[C@]4(C)CC[C@]23C)[C@@]1(C)C(=O)O,57.9%,99%,–,51.1%,19.5%
CCCC(=O)O[C@H]1CC[C@@]2(C)[C@@H](CC[C@]3(C)[C@@H]2C(=O)C=C2[C@@H]4[C@@H](C)[C@H](C)CC[C@]4(C)CC[C@]23C)[C@@]1(C)C(=O)O,44.2%,80%,37.8%,52.3%,48.5%
CCC(=O)O[C@@H]1CC[C@@]2(C)[C@@H](CC[C@]3(C)[C@@H]2CC=C2[C@@H]4[C@@H](C)[C@H](C)CC[C@]4(C)CC[C@]23C)[C@@]1(C)C(=O)O,40%,–,–,43.5%,–
C[C@H]1[C@H](C)CC[C@]2(C)CC[C@]3(C)C(=CC[C@@H]4[C@@]5(C)CC[C@@H](O)[C@](C)(C(=O)O)[C@@H]5CC[C@]43C)[C@H]12 [BOSWELLIC ACID],44.5%,73%,50.8%,48.6%,53%
CCCCCC(=O)O[C@H]1CC[C@@]2(C)[C@@H](CC[C@]3(C)[C@@H]2C(=O)C=C2[C@@H]4[C@@H](C)[C@H](C)CC[C@]4(C)CC[C@]23C)[C@@]1(C)C(=O)O,44.7%,85%,30.7%,64%,44.1%
COc1ccc(C2CNC(=O)C2)cc1OC1CCCC1 (centres undefined) [ROLIPRAM],34.6%,–,48.1%,26.2%,36.9%
CCCCCC(=O)O[C@@H]1CC[C@@]2(C)[C@@H](CC[C@]3(C)[C@@H]2CC=C2[C@@H]4[C@@H](C)[C@H](C)CC[C@]4(C)CC[C@]23C)[C@@]1(C)C(=O)O,72.3%,89%,42.5%,50.5%,57.5%
CCCC(=O)O[C@H]1CC[C@@]2(C)[C@@H](CC[C@]3(C)[C@@H]2CC=C2[C@@H]4[C@@H](C)[C@H](C)CC[C@]4(C)CC[C@]23C)[C@@]1(C)C(=O)O,68.9%,83%,58.7%,39.5%,51.6%
CC(=O)O[C@@H]1CC[C@]2(C)[C@H]3CC=C4[C@@H]5[C@@H](C)[C@H](C)CC[C@]5(C)CC[C@@]4(C)[C@]3(C)CC[C@H]2[C@@]1(C)N,68.3%,100%,39.5%,63.3%,41.4%
C[C@H]1[C@H](C)CC[C@]2(C)CC[C@]3(C)C(=CC[C@@H]4[C@@]5(C)CC[C@H](O)[C@](C)(C(=O)O)[C@@H]5CC[C@]43C)[C@H]12,41.4%,–,–,42.3%,–
CC(=O)O[C@H]1CC[C@@]2(C)[C@@H](CC[C@]3(C)[C@@H]2C(=O)C=C2[C@@H]4[C@@H](C)[C@H](C)CC[C@]4(C)CC[C@]23C)[C@@]1(C)C(=O)O,39.6%,–,–,44.7%,–
CCCCCC(=O)O[C@@H]1CC[C@@]2(C)[C@@H](CC[C@]3(C)[C@@H]2C(=O)C=C2[C@@H]4[C@@H](C)[C@H](C)CC[C@]4(C)CC[C@]23C)[C@@]1(C)C(=O)O,18.3%,–,–,13.8%,–
